Assay [1] deals with Serine/threonine-protein kinase PAK 1 (Homo sapiens) (UniProt Q13153). In words: Inhibition of PAK1 (unknown origin).
Assay [2] concerns the target Serine/threonine-protein kinase PAK1. The experiment in a line: Inhibition of human recombinant PAK1 using KKRNRRLSVA as substrate assessed as inhibition constant preincubated with compound for 10 mins followed by substrate addition and measured after 60 mins by FRET assay.
Assay [3] concerns the target Serine/threonine-protein kinase PAK 1 (Homo sapiens) (UniProt Q13153). The experiment in a line: Inhibition of PAK1 (unknown origin) in presence of ATP.
For assay [4] the target is unchanged. The experiment in a line: Inhibition of PAK1 (unknown origin) using 5-FAM-KPDRKKRYTVVGNPY-amide as substrate incubated for 120 mins by caliper off-chip mobility shift assay.
For assay [5] the target is unchanged. The experiment in a line: Inhibition of PAK1 (unknown origin) in presence of ATP by Z-LYTE enzymatic kinase assay.

Sequence of Serine/threonine-protein kinase PAK 1 (Homo sapiens) (Q13153 whole entry, looked up): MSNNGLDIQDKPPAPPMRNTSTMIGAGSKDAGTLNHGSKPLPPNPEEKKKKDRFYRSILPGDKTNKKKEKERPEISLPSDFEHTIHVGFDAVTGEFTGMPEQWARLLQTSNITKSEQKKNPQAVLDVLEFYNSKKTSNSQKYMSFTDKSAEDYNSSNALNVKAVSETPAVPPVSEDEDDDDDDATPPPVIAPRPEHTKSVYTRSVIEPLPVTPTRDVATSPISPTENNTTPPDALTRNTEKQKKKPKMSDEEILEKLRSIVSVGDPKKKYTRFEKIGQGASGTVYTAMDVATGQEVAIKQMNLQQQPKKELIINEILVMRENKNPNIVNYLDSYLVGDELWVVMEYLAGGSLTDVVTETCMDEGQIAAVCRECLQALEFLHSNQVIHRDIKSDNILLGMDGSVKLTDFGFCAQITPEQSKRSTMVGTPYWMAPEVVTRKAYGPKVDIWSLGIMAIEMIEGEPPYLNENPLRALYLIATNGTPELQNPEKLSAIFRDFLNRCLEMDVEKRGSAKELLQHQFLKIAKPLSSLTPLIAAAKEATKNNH

As for `CCN1c2ccc(F)cc2N=C(N2CCN(C)CC2)c2cc(Cl)ccc21`, in assay [1], the half-maximal inhibitory concentration (IC50) (usually the concentration that inhibits the measured activity by half) turned out to be 0.34 µM.

Consider `Cc1nc2ccc(C#CC(C)(C)O)cc2n1-c1ncnc(N)n1`, for which, in assay [2], the Ki (commonly the dissociation constant of the complex between target and ligand, obtained from inhibition or displacement) was determined as 15.3 µM.

For `CN[C@@H]1C[C@H]2O[C@@](C)([C@@H]1OC)n1c3ccccc3c3c4c(c5c6cc(O)ccc6n2c5c31)C(=O)NC4`, in assay [1], the IC50 stood at 0.001 µM.

Turning to `CCN(Cc1ccc2[nH]cnc2c1Cl)c1nccc(Nc2cc(C(C)C)[nH]n2)n1`, the IC50 in assay [1] is 0.0016 µM.

In assay [1], `CN(Cc1ccc2[nH]ccc2n1)c1nccc(Nc2cc([C@H]3C[C@@H]3F)[nH]n2)n1` displayed a half-maximal inhibitory concentration (IC50) of 0.008 µM.

Regarding `CCn1c(=O)c(-c2ccc(-c3noc(C)n3)cc2Cl)cc2cnc(Nc3ccc(C4CCN(C)CC4)cc3)nc21`, in assay [1], it took 0.004 µM to reach half-maximal inhibition (IC50).

On to `O=C1NC(=O)c2cc(-c3ccccn3)ccc21`, for which the concentration for half-maximal inhibition (IC50) in assay [3] was more than 100 µM.

On to `O=C(c1ccccc1Cl)c1n[nH]c2ncc(-c3cnn(C4CCNCC4)c3)cc12`, for which the half-inhibitory concentration (IC50) in assay [4] came to 0.02 µM.

In the case of `CCn1c(=O)c(-c2ccc(Cl)cc2Cl)cc2cnc(Nc3ccc(N4CCN(C)CC4)cc3)nc21` [FRAX414], in assay [5], the IC50 stood at 0.02 µM.

For `CN1CCN(c2ccc(Nc3ncc4ccc(=O)n(C5CCCC5)c4n3)cc2)CC1` [Pyrido[2,3-d]pyrimidin-7-one 1], in assay [5], the 50% inhibitory concentration (IC50) turned out to be 0.483 µM.

Values taken from BindingDB's records for PubMed 25415869 (Genentech).
